According to patent US11753371B2 (BATTERJEE MEDICAL COLLEGE, priority 2021, dated 2023):

How the values were obtained:
Type in all cases: biochemical
[1] = biological target: ALDH1a1 (Homo sapiens (Human), UniProt P00352); experiment: ALDH assay (diaphorase/resazurin), ALDH1a1 inhibition
From the text: (§1) ALDH catalyzes the oxidation of acetaldehyde to acetic acid while reducing NAD+ to NADH. The formation of NADH is fluorescently detected using diaphorase/resazurin system. Diaphorase utilizes NADH formed from ALDH reaction to produce the fluorescent molecule resorufin from resazurin. See Davis, M. I.; Shen, M.; Simeonov, A.; Hall, M. D., Diaphorase Coupling Protocols for Red-Shifting Dehydrogenase Assays.
(§2) The reagent ALDH1a1 is from R&D Systems (Minneapolis, MN). ALDH2 is from Prospect Bio (East Brunswick, NJ). Acetaldehyde is from Cayman Chemicals (Ann Arbor, MI). NAD^+, and Resazurin sodium salt are from Sigma (St. Louis, MO). Diaphorase is from Reaction Biology (Malvern PA). Zaba micro spin columns are from ThermoFisher scientific (Waltham, MA). […] Desalted samples from each enzyme were pooled together and placed in ice until use. Reaction buffer (50 mM sodium pyrophosphate buffer at pH 8.8, 0.01% Brij35) degassed using vacuum for 10 mins until no visible air bubbles were seen.
(§3) 5 μl of reaction buffer was delivered to ‘no enzyme’ background control wells. Test compounds were prepared in 100% DMSO by serial dilution in 100× of assay concentration. After adding the test compounds, reaction plate was centrifuged briefly in 1200 rpm, then incubated for 20 min at room temperature, to pre-incubate enzyme and compounds. […] Reaction plate was briefly centrifuged and sealed with a plastic film to limit evaporation. After incubation at room temperature for 60 min, 10 μl of detection reagent (15 μg/ml diaphorase, 30 μM resazurin prepared in the degassed reaction buffer) was added. Reaction plate was briefly centrifuged and incubated for 10 minutes at room temperature in the dark.

[2] = biological target: ALDH2 (Homo sapiens (Human), UniProt P05091); experiment: ALDH assay (diaphorase/resazurin), ALDH2 inhibition
From the text: as §1, §2, §3

[3] = biological target: human MAGL (hMAGL) (Homo sapiens (Human), UniProt Q99685); experiment: MAGL enzyme inhibition assay (4-nitrophenylacetate); details: relative to disulfiram / unsubstituted analogue
Experimental: The plate was mixed for 30 s and incubated at room temperature for 30 min.

[4] = biological target: human FAAH (hFAAH) (Homo sapiens (Human), UniProt O00519); experiment: FAAH enzyme inhibition assay (Cayman screening kit, AMC-arachidonoyl amide); parameters: key to IC50 (μM) ± SE (hFAAH): NI: no inhibition seen at the tested conditions
Experimental: FAAH inhibition assay was performed using Fatty Acid Amide Hydrolase Inhibitor Screening Assay Kit (Item #10005196), Cayman (1180 E Ellsworth Rd Ann Arbor, MI, USA). […] Manufacturer's protocol was followed to perform the assay. The assay buffer (125 mM Tri-HCl with 1 mM EDTA, pH 9.0) was used to dilute the FAAH human recombinant enzyme. AMC-Arachidonoyl amide, at a concentration of 400 μM was then used as the FAAH substrate. Samples were mixed for 30 s and incubated at 37° C. for 30 min. The fluorescent by-product AMC (7-amino-4-methylcoumarin) released by the FAAH enzyme was detected and quantified at an excitation wavelength of 355 nm and emission wavelength of 460 nm.

[5] = Table II, average of at least two different experiments

Sequence of human FAAH (hFAAH) (O00519 whole entry): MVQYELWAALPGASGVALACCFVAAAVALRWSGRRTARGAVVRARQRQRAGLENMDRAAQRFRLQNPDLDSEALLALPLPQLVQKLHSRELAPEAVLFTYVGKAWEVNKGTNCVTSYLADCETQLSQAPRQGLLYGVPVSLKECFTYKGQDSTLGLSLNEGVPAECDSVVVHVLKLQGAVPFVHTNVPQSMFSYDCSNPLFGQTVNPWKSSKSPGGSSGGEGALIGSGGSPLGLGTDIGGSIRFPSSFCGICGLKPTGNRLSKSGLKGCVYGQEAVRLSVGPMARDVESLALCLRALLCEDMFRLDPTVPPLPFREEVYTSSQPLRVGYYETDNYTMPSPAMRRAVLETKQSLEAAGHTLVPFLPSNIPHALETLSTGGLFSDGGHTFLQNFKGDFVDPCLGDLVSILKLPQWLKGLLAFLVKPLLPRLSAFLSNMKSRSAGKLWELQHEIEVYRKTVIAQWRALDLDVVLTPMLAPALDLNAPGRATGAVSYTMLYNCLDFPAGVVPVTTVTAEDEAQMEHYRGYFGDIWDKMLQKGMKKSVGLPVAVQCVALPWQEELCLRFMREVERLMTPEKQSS
Sequence of ALDH1a1 (P00352 whole entry): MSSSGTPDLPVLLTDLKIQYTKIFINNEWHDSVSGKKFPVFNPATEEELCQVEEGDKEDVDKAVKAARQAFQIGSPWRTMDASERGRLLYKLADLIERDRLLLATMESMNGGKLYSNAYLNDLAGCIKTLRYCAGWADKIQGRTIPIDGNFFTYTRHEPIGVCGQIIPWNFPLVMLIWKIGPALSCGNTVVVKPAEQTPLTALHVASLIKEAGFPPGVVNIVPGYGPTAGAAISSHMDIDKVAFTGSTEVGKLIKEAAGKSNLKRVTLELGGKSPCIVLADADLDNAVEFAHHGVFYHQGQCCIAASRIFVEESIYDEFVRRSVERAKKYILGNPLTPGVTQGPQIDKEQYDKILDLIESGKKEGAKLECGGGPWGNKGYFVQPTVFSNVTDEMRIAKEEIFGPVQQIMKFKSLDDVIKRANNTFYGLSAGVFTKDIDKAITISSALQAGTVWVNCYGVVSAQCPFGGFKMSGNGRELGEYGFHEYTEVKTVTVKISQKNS
Sequence of ALDH2 (P05091 18-517): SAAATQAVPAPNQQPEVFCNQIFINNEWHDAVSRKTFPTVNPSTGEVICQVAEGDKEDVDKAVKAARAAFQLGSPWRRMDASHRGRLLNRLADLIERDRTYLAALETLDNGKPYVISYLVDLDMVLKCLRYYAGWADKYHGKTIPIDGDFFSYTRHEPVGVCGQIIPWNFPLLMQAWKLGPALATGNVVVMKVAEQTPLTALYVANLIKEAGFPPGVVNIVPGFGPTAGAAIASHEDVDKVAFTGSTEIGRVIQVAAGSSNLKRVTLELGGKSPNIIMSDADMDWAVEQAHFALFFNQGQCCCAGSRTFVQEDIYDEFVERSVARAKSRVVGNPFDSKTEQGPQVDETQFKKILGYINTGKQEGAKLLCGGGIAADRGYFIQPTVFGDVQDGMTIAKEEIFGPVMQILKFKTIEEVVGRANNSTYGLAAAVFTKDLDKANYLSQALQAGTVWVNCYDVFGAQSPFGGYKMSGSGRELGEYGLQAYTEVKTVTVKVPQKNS
Sequence of human MAGL (hMAGL) (Q99685 whole entry): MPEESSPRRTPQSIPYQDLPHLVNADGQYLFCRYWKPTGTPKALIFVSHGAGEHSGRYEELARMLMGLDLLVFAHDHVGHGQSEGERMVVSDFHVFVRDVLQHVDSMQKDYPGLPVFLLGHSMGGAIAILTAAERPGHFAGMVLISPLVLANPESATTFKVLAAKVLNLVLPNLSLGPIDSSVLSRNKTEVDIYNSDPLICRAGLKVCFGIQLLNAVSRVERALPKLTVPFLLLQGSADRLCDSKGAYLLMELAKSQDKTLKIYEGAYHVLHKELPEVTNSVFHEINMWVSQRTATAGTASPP

Compound: Cl.NCCS [3 Cysteamine•HCl, Cysteamine•HCl]
- ALDH1a1 inhibitory activity (in words) [1]: none of them showed any activity
- ALDH2 inhibitory activity (in words) [2]: none of them showed any activity

Compound: CC(=O)N[C@@H](CS)C(=O)O [5 N•Acetyl-i-Cysteine, N•Acetyl-i-Cysteine]
- ALDH1a1 inhibitory activity (in words) [1]: none of them showed any activity
- ALDH2 inhibitory activity (in words) [2]: none of them showed any activity

Compound: CCN(Cc1ccc(C(=O)O)cc1)C(=S)SSC(=S)N(CC)Cc1ccc(C(=O)O)cc1 [Compound I-2d]
- change in ALDH1a1 inhibitory activity relative to I-2a ([1]; para carboxylic acid versus I-2a): tenfold decrease
- fold decrease in MAGL inhibitory activity [3]: 20 fold
- FAAH inhibitory activity (in words) [4]: devoid of anti-FAAH activity
- IC50 (μM) ± SE (hFAAH) [4, 5]: NI

Compound: CCN(CCC(=O)O)C(=S)SSC(=S)N(CC)CCC(=O)O [Compound I-2e, bis(N-carboxylethylethylthiocarbamoyl)disulfide]
- IC50 ([4]; Table II, average of at least two different experiments, read-out: IC50 (μM) ± SE (hFAAH)): 122 ± 1.57 µM

Compound: CCN(C)C(=S)SSC(=S)N(C)CC [Compound I-2g]
- IC50 ([1]; Table I, mean of at least two independent experiments, read-out: IC50 (μM) ± SE (ALDH1a1)): 0.02 ± 0.01 µM
- IC50 ([2]; Table I, mean of at least two independent experiments, read-out: IC50 (μM) ± SE (ALDH2)): 0.32 ± 0.04 µM

Compound: CC(C)N(C(=S)SSC(=S)N(C(C)C)C(C)C)C(C)C [Compound I-2h]
- IC50 (μM) ± SE (hFAAH) [4, 5]: NI

Compound: CC(C)CN(CC(C)C)C(=S)SSC(=S)N(CC(C)C)CC(C)C [Compound I-2j]
- ALDH1a1 inhibitory activity (in words) [1]: complete loss of activity
- fold decrease in MAGL inhibitory activity [3]: up to 15 fold
- FAAH inhibitory activity (in words) [4]: no inhibition of FAAH
- IC50 (μM) ± SE (hFAAH) [4, 5]: NI

Compound: CCN(Cc1ccc(C)cc1)C(=S)SSC(=S)N(CC)Cc1ccc(C)cc1 [III-2i, bis (N-4-Methylbenzyethylthiocarbamoyl) disulphide]
- Aldh1a1 (IC50, μM) ± SE ([1]; Table III): No inhibition
- Aldh2 (IC50, μM) ± SE ([2]; Table III): No inhibition

Compound: bis(N-4-ethoxycarbonylbenzylethylthiocarbamoyl)disulphide [II-2l]
- FAAH inhibitory activity (in words) [4]: devoid of anti-FAAH activity
- IC50 (μM) ± SE (hFAAH) [4, 5]: NI
